Measurements published in US12116358B2, “Substituted indoles and methods of use thereof” (EPIZYME, INC., priority 2018, dated 2024).
Read-outs that look alike come from different tables or passages of the source.

Experiments:
SETD2(1434-1711) = target: T1, SETD2(1434-1711) (Homo sapiens, UniProt Q9BYW2); experiment: SETD2 (1434-1711) assay; type: biochemical; conditions: read-out: SETD2 (1434-1711)
T1 construct: SETD2 (1434-1711) Assay; catalogue N/A
T1 sequence (Q9BYW2 1434-1711): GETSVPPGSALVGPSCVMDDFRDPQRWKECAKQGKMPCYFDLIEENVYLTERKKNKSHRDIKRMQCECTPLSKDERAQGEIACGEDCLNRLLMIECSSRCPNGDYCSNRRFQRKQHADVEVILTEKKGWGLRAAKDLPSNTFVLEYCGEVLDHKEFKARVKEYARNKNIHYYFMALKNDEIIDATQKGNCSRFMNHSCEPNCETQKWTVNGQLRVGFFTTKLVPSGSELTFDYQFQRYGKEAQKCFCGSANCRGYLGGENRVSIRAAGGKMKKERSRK

H3K36me3 in A549 cells = experiment: In-Cell Western (ICW) assay of SETD2 inhibitors (A549 assay); type: cell-based, human; conditions: A549 cells, read-out: SETD2 A549
How it was run: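 A549 cells seeded at 4,000/well onto compound and incubated 3 days at 37° C. Methanol-fixed cells stained overnight at 4° C with anti-H3K36me3 (1:1000), then IRDye 800CW secondary with DRAQ5 DNA counterstain. Plates read by Licor imaging at 700 and 800 channels.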

Row | SMILES | IC50 (SETD2(1434-1711)) | IC50 (H3K36me3 in A549 cells; Homo sapiens) | IC50 (H3K36me3 in A549 cells)
1 | Cc1ccc(F)c2cc(C(=O)Nc3cnn(C4CCN(C)CC4)c3)[nH]c12 [compound 569] | 14 µM | > 25 µM | –
2 | Cc1cccc2cc(C(=O)NCc3cccc4ccnn34)[nH]c12 [compound 570] | 15 µM | > 25 µM | –
3 | Cc1cccnc1C(CCC(=O)NC1CCOC1)NC(=O)c1cc2cccc(C)c2[nH]1 (stereo not drawn) [compound 571] | 15.9 µM | – | > 25 µM
4 | Cc1cccnc1C(CCC(=O)N1CCNCC1)NC(=O)c1cc2cccc(C)c2[nH]1 (stereo not drawn) [compound 572] | 16.6 µM | > 25 µM | –
5 | Cc1cc(C(=O)N[C@H]2CC[C@@H]2N)cnc1C(NC(=O)c1cc2cccc(C)c2[nH]1)C1CC1 (stereo partly drawn) [compound 573] | 16.9 µM | > 25 µM | –
6 | Cc1cccnc1C(NC(=O)c1cc2cccc(CO)c2[nH]1)C1CC1 (stereo not drawn) [compound 574] | 17.3 µM | > 25 µM | –
7 | Cc1cccc2cc(C(=O)NCc3ccccc3N3CCOCC3)[nH]c12 [compound 575] | > 18 µM | > 25 µM | –
8 | Cc1ccc[n+]([O-])c1C(NC(=O)c1cc2cccc(C)c2[nH]1)C1CC1 (stereo not drawn) [compound 576] | 18.6 µM | > 25 µM | –
9 | Cc1cc(C(=O)N2CCNCC2)ccc1C(NC(=O)c1cc2cccc(C)c2[nH]1)C1CC1 (stereo not drawn) [compound 577] | 21.8 µM | > 25 µM | –
10 | Cc1cccc2cc(C(=O)Nc3ccn4ccnc4c3)[nH]c12 [compound 578] | 22.5 µM | – | > 25 µM
11 | Cc1cccnc1C(CCC(=O)NC1CCC(N)CC1)NC(=O)c1cc2cccc(C)c2[nH]1 (stereo not drawn) [compound 579] | 23 µM | – | > 25 µM
12 | Cc1cccc2cc(C(=O)NCCc3ccccc3-n3ccnc3)[nH]c12 [compound 580] | 24.5 µM | > 25 µM | –
13 | Cc1cccc2cc(C(=O)NC3CCC(NS(=O)(=O)CCCN)CC3)[nH]c12 (stereo not drawn) [compound 581] | 28.2 µM | – | > 25 µM
14 | CCN(CC)CCCC(NC(=O)c1cc2cccc(C)c2[nH]1)c1ncccc1C (stereo not drawn) [compound 582] | 31.2 µM | > 25 µM | –
15 | Cc1ccc(C(=O)N2CCNCC2)cc1C(NC(=O)c1cc2cccc(C)c2[nH]1)C1CC1 (stereo not drawn) [compound 583] | 32.4 µM | > 25 µM | –
16 | Cc1cc(C(=O)N[C@@H]2CC[C@@H]2N)cnc1C(NC(=O)c1cc2cccc(C)c2[nH]1)C1CC1 (stereo partly drawn) [compound 584] | 33.7 µM | > 25 µM | –
17 | CNC(=O)C(NC(=O)c1cc2c(F)ccc(C)c2[nH]1)c1ccccn1 (stereo not drawn) [compound 585] | 34 µM | – | > 25 µM
18 | CCOC(=O)CC(NC(=O)c1cc2cccc(C)c2[nH]1)c1ccccc1 (stereo not drawn) [compound 586] | 36.4 µM | > 25 µM | –
19 | Cc1cccc2cc(C(=O)N[C@H]3CC[C@H](NC(=O)CCN4CCCCC4)CC3)[nH]c12 [compound 587] | 37.4 µM | > 25 µM | –
20 | Cc1cccc2cc(C(=O)N[C@@H]3CCN(C(=O)CCCN)C[C@@H]3C)[nH]c12 [compound 588] | 40.4 µM | > 25 µM | –
21 | CCN(CC)CCC(=O)N[C@H]1CC[C@H](NC(=O)c2cc3cccc(C)c3[nH]2)CC1 [compound 589] | 43.6 µM | > 25 µM | –
22 | Cc1cccnc1C1(NC(=O)c2cc3cccc(C)c3[nH]2)CNC1 [compound 591] | > 50 µM | > 25 µM | –
23 | Cc1cccc2cc(C(=O)NC3CCN(C(=O)CCCN)C3)[nH]c12 (stereo not drawn) [compound 593] | > 50 µM | > 25 µM | –
24 | Cc1cccc2cc(C(=O)NC3CN(C(=O)CCCN)C3)[nH]c12 [compound 594] | > 50 µM | > 25 µM | –
25 | Cc1cccnc1C(C)(C)NC(=O)c1cc2cccc(C)c2[nH]1 [compound 595] | > 50 µM | – | > 25 µM
26 | Cc1cccc2cc(C(=O)N[C@H]3C[C@@H](NC(=O)CCN)C3)[nH]c12 [compound 596] | > 50 µM | > 25 µM | –
27 | Cc1cccc2cc(C(=O)NC3CC(NC(=O)CCN)C3)[nH]c12 (stereo not drawn) [compound 597] | > 50 µM | – | > 25 µM

Row | SMILES | IC50 (SETD2(1434-1711)) | IC50 (H3K36me3 in A549 cells; Homo sapiens) | IC50 (H3K36me3 in A549 cells)
28 | Cc1cccnc1C(NC(=O)c1cc2ccnc(C)c2[nH]1)C1CC1 (stereo not drawn) [compound 598] | > 50 µM | > 25 µM | –
29 | Cc1cccc2cc(C(=O)NC3CCC(NC(=O)CCN)C3)[nH]c12 (stereo not drawn) [compound 600] | > 50 µM | > 25 µM | –
30 | Cc1cccnc1C(CN1CCOCC1)N(C)C(=O)c1cc2cccc(C)c2[nH]1 (stereo not drawn) [compound 601] | > 50 µM | – | > 25 µM
31 | Cc1noc(CN)c1C(NC(=O)c1cc2cccc(C)c2[nH]1)C1CC1 (stereo not drawn) [compound 602] | > 50 µM | > 25 µM | –
32 | Cc1cccc2cc(C(=O)NC(CN(C)C)c3cccnc3)[nH]c12 (stereo not drawn) [compound 603] | > 50 µM | – | > 25 µM
33 | Cc1cccnc1C(NC(=O)c1cc2ncccn2n1)C1CC1 (stereo not drawn) [compound 604] | > 50 µM | > 25 µM | –
34 | Cc1cccc2cc(C(=O)NC3CCC(NC(=O)Cc4cccnc4)CC3)[nH]c12 (stereo not drawn) [compound 605] | > 50 µM | – | > 25 µM
35 | Cc1cccnc1C(NC(=O)c1cc2c(CO)ccc(C)c2[nH]1)C1CC1 (stereo not drawn) [compound 606] | > 50 µM | – | > 25 µM
36 | Cc1cccnc1C(NC(=O)C1Cc2cccc(C)c2N1)C1CC1 (stereo not drawn) [compound 607] | > 50 µM | > 25 µM | –
37 | Cc1cccnc1C(NC(=O)c1cc2cncc(C)c2[nH]1)C1CC1 (stereo not drawn) [compound 608] | > 50 µM | – | > 25 µM
38 | Cc1ccc(F)c2cc(C(=O)Nc3cccc4cccnc34)[nH]c12 [compound 609] | > 50 µM | – | > 25 µM
39 | Cc1ccc(F)c2cc(C(=O)Nc3cc(N4CCN(C)CC4)ccn3)[nH]c12 [compound 612] | > 50 µM | > 25 µM | –
40 | Cc1cccc2cc(C(=O)NC3CCN(C(=O)CCCN)CC3C)[nH]c12 (stereo not drawn) [compound 614] | 62.7 µM | – | > 25 µM
41 | Cc1cccc2cc(C(=O)NC(c3cccc(CN(C)C)n3)C3CC3)[nH]c12 (stereo not drawn) [compound 615] | 71.1 µM | – | > 25 µM
42 | Cc1cccc2cc(C(=O)N[C@@H](CO)c3ccccc3)[nH]c12 [compound 616] | 105 µM | > 25 µM | –
43 | Cc1cccc2cc(C(=O)NC3CC(=O)NCC(c4ccccc4)C3)[nH]c12 (stereo not drawn) [compound 617] | > 200 µM | – | > 25 µM
44 | Cc1cccnc1C(NC(=O)c1cc2cccc(Cc3ccn[nH]3)c2[nH]1)C1CC1 (stereo not drawn) [compound 618] | > 200 µM | > 25 µM | –
45 | Cc1cccc2cc(C(=O)N3CCCC34CCc3ccccc34)[nH]c12 (stereo not drawn) [compound 619] | > 200 µM | > 25 µM | –
46 | Cc1cccc2cc(C(=O)NC3CCNC(=O)c4ccccc43)[nH]c12 (stereo not drawn) [compound 620] | > 200 µM | – | > 25 µM
47 | Cc1cccc2cc(C(=O)NCCc3cc(Cl)ccc3N3CCOCC3)[nH]c12 [compound 622] | > 200 µM | – | > 25 µM
48 | Cc1cccc2cc(C(=O)Nc3cn4ccnc4cn3)[nH]c12 [compound 623] | > 200 µM | – | > 25 µM
49 | Cc1ccc(F)c2cc(C(=O)N[C@@H]3CCC[C@H](N4CCCNC(=O)C4)C3)[nH]c12 [compound 823] | 0.4 µM | – | 0.4 µM
50 | CCOC(=O)N1CCN([C@H]2CCC[C@@H](NC(=O)c3cc4c(F)ccc(C)c4[nH]3)C2)CC1 [compound 824] | 0.01 µM | – | 0.04 µM
51 | Cc1ccc(F)c2cc(C(=O)N[C@@H]3CCC[C@H](N4CCN(CC(F)(F)F)CC4)C3)[nH]c12 [compound 826] | 0.1 µM | – | 0.5 µM
52 | Cc1ccc(F)c2cc(C(=O)N[C@@H]3CCC[C@H](N4CCN(C(=O)N5CCOCC5)CC4)C3)[nH]c12 [compound 828] | 0.02 µM | – | 0.04 µM
53 | CC(=O)NC1CCN([C@H]2CCC[C@@H](NC(=O)c3cc4c(F)ccc(C)c4[nH]3)C2)C1 (stereo partly drawn) [compound 833] | 0.04 µM | – | 0.4 µM
54 | Cc1ccc(F)c2cc(C(=O)N[C@@H]3CCC[C@H](N4CCN(C(=O)C(C)C)CC4)C3)[nH]c12 [compound 837] | 0.02 µM | 0.1 µM | –
